Test results: patent publication US9029076B2, “Tissue preservation and fixation method” (George Mason Research Foundation, Inc., priority 2006, dated 2015)

What was measured:
Test in all cases: RPA phosphoprotein level after 24 h storage of tumor needle samples in preservatives
Conditions in all cases: 24 h in preservative at 4° C., relative normalized RPA intensity
[1] = test system: IKappa-Ba ser32
Protocol: (§1) The RPA format, originated by the present inventors and collaborators (see, e.g., Paweletz et al. (2001) Oncogene 20, 1981-1989), immobilizes an individual test sample in a miniature dilution curve such that an array contains hundreds of different patient samples, treatments, or time points. In the RPA format, each array is incubated with one detection protein (e.g. anti-peptide antibody), and a single analyte endpoint is measured and directly compared across multiple samples. Briefly, the lysates are printed on glass backed nitrocellulose array slides (FAST Slides Whatman, Florham Park, N.J. or ONCYTE slides Grace BioLabs, Bend, Oreg.) using a robotic array printing device (GMS 417 arrayer (Affymetrix, Santa Clara, Calif. or Aushon 2470, Aushon Biosystems, Burlington, Mass. equipped with 125-500 μm pins). Each lysate is printed in a dilution curve representing neat, 1:2, 1:4, 1:8, 1:16 and negative control dilutions. The slides are stored with desiccant (Drierite, W. A. Hammond, Xenia, Ohio) at −20° C. prior to immunostaining.
(§2) Immunostaining is performed on an automated slide stainer per manufacturer's instructions (Autostainer CSA kit, Dako, Carpinteria, Calif.). Each slide is incubated with a single primary antibody at room temperature for 30 minutes. Polyclonal primary antibodies can be, e.g.: GSK3α/β Tyr279/216 (Invitrogen-Biosource, Carlsbad, Calif.), BCL-2, HIF-1α (BD, Franklin Lakes, N.J.), 4EBP1, FKHR ser256, eIF4E, eIF4E ser209, eIF4G, eIF4G ser1108, IGFR-β, IRS-1, IRS-2, IRS-1 ser612, SGK, Bak, Bax, BAD, BAD ser112, BAD ser136, BAD ser155, B-Raf, mTOR, mTOR ser2448, p70S6 Thr389, p70S6 kinase, p70S6 ser371, S6 kinase ser240/244, Akt, Akt ser473, Akt Thr308, 4EBP1 ser65, 4EBP1 ser70, and 4EBP1 Thr37/46 (Cell Signaling Technology, Danvers, Mass.). A negative control slide is incubated with antibody diluent. Secondary antibody can be goat anti-rabbit IgG H+L (1:5000) (Vector Labs, Burlingame, Calif.).
(§3) Each array is scanned, spot intensity analyzed, data normalized, and a standardized, single data value can be generated for each sample on the array (Image Quant v5.2, GE Healthcare, Piscataway, N.J.) or MicroVigene v2.8, Vigene Tech, Billerica, Mass.). Spot intensity is integrated over a fixed area. Local area background intensity is calculated for each spot with the unprinted adjacent slide background. […] The Ward method for two-way hierarchical clustering can be performed using JMP v5.0 (SAS Institute, Cary N.C.). Wilcoxon two-sample rank sum test can be used to compare values between two groups. P values less than 0.05 are considered significant. When one cannot assume a normal distribution of the variables, non-parametric methods are used. Kaplan-Meier (log-rank) survival estimates for univariate survival analysis can be used.
(§4) Briefly, tumor tissues from gastrinoma/liver, mesothelioma and parathyroid tumors were sampled by five needle passes and placed into the preservatives listed in Table 5. […] Immediate lysis and denaturation of the cellular proteins were accomplished by standard Pierce Tissue Protein Extraction Buffer (T-PER), with additional SDS, denaturing reagents, and detergents. The cell samples were stored 24 h in the listed preservatives at 4° C. and then the listed phosphoprotein endpoints were measured. […] Some values dropped to zero while others are markedly elevated compared to the freshly lysed cell baseline. […] They were unable to stabilize the phosphorylation state of key signal proteins over a storage period of 24 hours, which is a typical time delay for cell or tissue shipment. Numbers in the table are relative normalized intensity values using the RPA technology described herein.

[2] = test system: AKT ser473
Protocol: as §1, §2, §3, §4

[3] = test system: EGFR Y1148
Protocol: as §1, §2, §3, §4

[4] = test system: CREB ser133
Protocol: as §1, §2, §3, §4

[5] = test system: ERK T202/Y204
Protocol: as §1, §2, §3, §4

[6] = test system: p38 T180/182
Protocol: as §1, §2, §3, §4

[7] = test system: CC3 Asp175
Protocol: as §1, §2, §3, §4

[8] = test system: IRS-1 ser612
Protocol: as §1, §2, §3, §4

[9] = test system: AKT Thr308
Protocol: as §1, §2, §3, §4

[10] = test system: GSK3ab ser21/9
Protocol: as §1, §2, §3, §4

[11] = Gastrinoma/liver tumor, Lysis Buffer = frozen immediately after lysis
[12] = Parathyroid tumor, Lysis Buffer = frozen immediately after lysis

Compound | IKappa-Ba ser32 Normalized data [1, 11] | IKappa-Ba ser32 Normalized data ([1]; Mesothelioma) | IKappa-Ba ser32 Normalized data [1, 12] | AKT ser473 Normalized data [2, 11] | AKT ser473 Normalized data ([2]; Mesothelioma) | AKT ser473 Normalized data [2, 12] | EGFR Y1148 Normalized data [3, 11] | EGFR Y1148 Normalized data ([3]; Mesothelioma) | EGFR Y1148 Normalized data [3, 12] | CREBser133 Normalized data [4, 11] | CREBser133 Normalized data ([4]; Mesothelioma) | CREBser133 Normalized data [4, 12] | ERK T202/Y204 Normalized data [5, 11] | ERK T202/Y204 Normalized data ([5]; Mesothelioma) | ERK T202/Y204 Normalized data [5, 12] | p38 T180/182 Normalized data [6, 11] | p38 T180/182 Normalized data ([6]; Mesothelioma) | p38 T180/182 Normalized data [6, 12] | CC3 Asp175 Normalized data [7, 11] | CC3 Asp175 Normalized data ([7]; Mesothelioma) | other results
[Cl-].[Na+] [0.9% saline, sodium chloride] | 29.64 | 16.87 | 1.87 | 3.76 | 9.78 | 1.84 | 39.76 | 24.62 | 6.57 | 24.09 | 17.20 | 5.35 | 10.75 | 7.72 | 0.00 | 33.41 | 26.34 | 4.79 | 14.57 | 10.85 | CC3 Asp175 Normalized data [7, 12]: 5.46; IRS-1 ser612 Normalized data [8, 11]: 4.82; IRS-1 ser612 Normalized data ([8]; Mesothelioma): 2.34; IRS-1 ser612 Normalized data [8, 12]: 0.00; AKT Thr308 Normalized data [9, 11]: 9.73; AKT Thr308 Normalized data ([9]; Mesothelioma): 8.97; AKT Thr308 Normalized data [9, 12]: 0.00; GSK3ab ser21/9 Normalized data [10, 11]: 12.25; GSK3ab ser21/9 Normalized data ([10]; Mesothelioma): 9.46; GSK3ab ser21/9 Normalized data [10, 12]: 0.00
OC[C@H]1O[C@H](O[C@H]2O[C@H](CO)[C@@H](O)[C@H](O)[C@H]2O)[C@H](O)[C@@H](O)[C@@H]1O [15% trehalose, Trehalose] | 32.99 | 13.29 | 24.12 | 0.00 | 7.86 | 0.26 | 95.78 | 21.03 | 26.55 | 55.11 | 10.01 | 21.50 | 17.01 | 0.00 | 9.34 | 36.95 | 7.39 | 30.53 | 11.19 | 6.82 | CC3 Asp175 Normalized data [7, 12]: 7.76; IRS-1 ser612 Normalized data [8, 11]: 25.51; IRS-1 ser612 Normalized data ([8]; Mesothelioma): 0.00; IRS-1 ser612 Normalized data [8, 12]: 0.05; AKT Thr308 Normalized data [9, 11]: 19.93; AKT Thr308 Normalized data ([9]; Mesothelioma): 0.95; AKT Thr308 Normalized data [9, 12]: 5.38; GSK3ab ser21/9 Normalized data [10, 11]: 32.18; GSK3ab ser21/9 Normalized data ([10]; Mesothelioma): 7.80; GSK3ab ser21/9 Normalized data [10, 12]: 10.36
OC[C@H]1O[C@@](CO)(O[C@H]2O[C@H](CO)[C@@H](O)[C@H](O)[C@H]2O)[C@@H](O)[C@@H]1O [30% sucrose, sucrose] | 69.82 | 0.00 | 0.33 | 16.16 | 19.36 | 3.27 | 65.97 | 22.84 | 6.14 | 69.03 | 22.82 | 2.09 | 48.68 | 15.67 | 1.15 | 63.91 | 28.71 | 1.15 | 61.02 | 17.90 | CC3 Asp175 Normalized data [7, 12]: 2.23; IRS-1 ser612 Normalized data [8, 11]: 31.46; IRS-1 ser612 Normalized data ([8]; Mesothelioma): 1.84; IRS-1 ser612 Normalized data [8, 12]: 0.00; AKT Thr308 Normalized data [9, 11]: 42.04; AKT Thr308 Normalized data ([9]; Mesothelioma): 12.13; AKT Thr308 Normalized data [9, 12]: 0.00; GSK3ab ser21/9 Normalized data [10, 11]: 37.27; GSK3ab ser21/9 Normalized data ([10]; Mesothelioma): 3.12; GSK3ab ser21/9 Normalized data [10, 12]: 0.00
